# According to patent US8835392B2, “Mimetic peptides and the use thereof in the form of 20S, 26S and immunoproteasome inhibitors” (Technische Universität, priority 2005, dated 2014):
# “Also recorded” adds a separate entry of the source. Where a SMILES comes first, the peptide text is derived from it. [ ]: non-standard residue; d: D form. The star is where a group is joined. Leu(ol) = CC(C)C[C@H](N)CO; Cbz = O=C(OCc1ccccc1)*; Boc = CC(C)(C)OC(=O)*; OBn = c1ccc(CO*)cc1; OtBu = CC(C)(C)O*; CH2Cl = ClC*
# Tests used:
# [1] = biological target: T1, 20S proteasome β5 chymotrypsin-like activity (Suc-LLVY-AMC) (Homo sapiens, UniProt P20618+P28074); assay: Protease assay, chymotrypsin-like activity of isolated 20S proteasomes (LLVY substrate); assay type: biochemical; settings: isolated 20S proteasome; LLVY-MCA 50 μM; 15 min pre-incubation; read-out: IC50 β5 Chymotrypsin-like (Y)
# T1 construct: Proteasomes were isolated from red blood cells; from tissue; host or cells: red blood cells
# Procedure: (§1) Proteasomes were isolated from red blood cells. Cells were lysed with DTT (1 mM), and the stroma-free supernatant was loaded on DEAE-sepharose (Toyopearls). Proteasome was eluted with an NaCl-gradient in TEAD (20 mM TrisCl pH 7.4, 1 mM EDTA, 1 mM azide, 1 mM DTT) of 100 to 300 mM NaCl. Proteasome was concentrated using ammonium sulfate-precipitation (between 40 and 70% saturation) and was separated in a 10-40% sucrose-gradient through centrifugation at 40.000 rpm for 16 hours (SW40; L7, Beckman & Coulter). Finally, the proteasomes were purified on a MonoQ-column and eluted with an NaCl-gradient at about 280 mM NaCl. The fractions containing purified proteasome were dialysed against 50 mM NaCl in TEAD and stored on ice. The purity was determined using SDS-PAGE.
# (§2) Suc-LLVY-AMC, Z-VGR-AMC and LLE-AMC (BACHEM, Calbiochem) was used, in order to determine the chymotrypsin-like, trypsin-like or caspase-like (post-acidic)-activities of the proteasome. Substrate was incubated with proteasome at 37° C. in assay-buffer (20 mM Tris/Cl, pH 7.2, 1 mM EDTA, 1 mM DTT) for one hour. 100 ng proteasome was pre-incubated with 0.01-10 μM of the inhibitor for […]. The reaction was started by the addition of substrate (50 μM). The AMC as released was detected using fluorescence emission at 460 nm (excitation at 390 nm) using a TECAN-fluorimeter. The activity was calculated in fluorescence-units. The inhibition is depicted by IC50-values.
# The chymotrypsin-like (Suc-LLVY-AMC), the trypsin-like (Bz-VGR-AMC), and the caspase-like (Z-LLE-AMC)-activities of 20S proteasomes were determined following incubation for one hour at 37° C.
# (§3) The IC50-values form the inhibition of the proteasome were calculated at increasing concentrations of the inhibitor. The samples were pre-incubated for 15 min in ice. The assay was started through the addition of 50 μM of one of the following fluorogenic peptide substrates:
# (§4) The release of MCA was determined at 460 nm emission (excitation 390 nm). The IC50-values as calculated for MG132 served as controls.
# 20S proteasome = test system: T2, 20S proteasome; assay: Inhibition of the different proteasomal activities, summary statements; assay type: biochemical; settings: isolated proteasomes, specific substrates
# T2 construct: Proteasomes were isolated from red blood cells; from tissue; host or cells: red blood cells
# Procedure: The specific inhibition of a single catalytic site is of specific interest for the development of drugs. Thus, the inhibition of the different proteasomal activities of the proteasome was analysed (see also example 6). The different cleavage-preferences of the proteasome were determined by the specific substrate for the hydrophobic (chymotrypsin-like), the trypsine-like and the caspase-like activities of isolated proteasomes.
# as §2
# (§5) The effects thereof were compared with the one of the commonly used proteasomal inhibitor 3 (MG132). The chymotrypsin-like (Suc-LLVY-AMC), the trypsin-like (Bz-VGR-AMC), and the caspase-like (Z-LLE-AMC)-activities of 20S proteasomes were determined following incubation for one hour at 37° C.
# [2] = biological target: T3, 20S proteasome β1 caspase-like activity (LLE-MCA) (Homo sapiens, UniProt P28072+Q99436); assay: Protease assay, caspase-like activity of isolated 20S proteasomes; assay type: biochemical; settings: isolated 20S proteasome; LLE-MCA 50 μM; 15 min pre-incubation; read-out: IC50 β1 Caspase-like (E)
# T3 construct: Proteasomes were isolated from red blood cells; from tissue; host or cells: red blood cells
# Procedure: as §1, §2, §5, §3, §4
# [3] = biological target: T4, 20S proteasome β2 trypsin-like activity (VGR-MCA) (Homo sapiens, UniProt P49720+Q99436); assay: Protease assay, trypsin-like activity of isolated 20S proteasomes; assay type: biochemical; settings: isolated 20S proteasome; VGR-MCA 50 μM; 15 min pre-incubation; read-out: IC50 β2 Trypsin-like (R)
# T4 construct: Proteasomes were isolated from red blood cells; from tissue; host or cells: red blood cells
# Procedure: as §1, §2, §5, §3, §4
# [4] = biological target: T5, proteasomal activity in HeLa-cells (Homo sapiens, UniProt P20618+P28074); assay: Intracellular inhibition of proteasomes in cultivated HeLa-cells; assay type: cell-based; settings: for reduction of the specific proteasomal activity in cells: 1 μM; for membrane-permeation / stability during the incubation periods: cultivated cells
# T5 construct: endogenous in cells; host or cells: HeLa
# Procedure: (§6) A, HeLa-cells were cultivated were 24 hours in the presence of the inhibitor. The protein concentration was determined in accordance with the cellular lysis according to Bradford in order to normalise the proteasomal activities to the different amounts of cells. Subsequently Complete (Roche) was added to all lysates, and the proteasomal activity was determined through the hydrolysis of Suc-LLVY-AMC. B, HeLa-cells was incubated with 1 μM of compound 15 for 2, 4, 6 and 24 hours. Cells were lysed, and proteins were separated through SDS-PAGE on a 10% gel, blotted to a PVDF-membrane. The accumulation of the poly-ubiquitinylated proteins was detected in a Western blot by an anti-ubiquitine-antibody (DAKO). C, HeLa-Cells were treated with increasing concentrations of the inhibitor 15, 25, 26, 27, and 28 for 24 hours (lane 1: without inhibitor; lane 2: 10 nM; lane 3: 100 nM and lane 4: 1 μM of the given inhibitor). Cells were lysed, proteins were separated on 15% gels, and the accumulation of the poly-ubiquitinylated proteins was controlled through Western blot.
# HeLa-Cells were cultivated in RPMI, supplemented with 10% FCS and penicillin/streptomycin, at 5% CO2. Inhibitors were administered from 100×-stock solutions (in DMSO) at the final concentrations as indicated, and incubated with the cells for at least 20 hours.
# Cultivated cells (HeLa) were harvested lysed and with 0.1% NP40 in TEAD in the presence of the commercially available protease-inhibitor-mixture Complete (Roche). The proteasomal activity was measured in 10 μl of the lysate using Suc-LLVY-AMC as a substrate. The protein content was quantified by means of Bradford (Protein assay; BioRad).
# An application on cell cultures or animals requires that the concentrations of the inhibitors are chose as low as required. The specific proteasomal activity was reduced to a value of below 50% in cells that were treated with 1 μM of the compounds 15, 22, 25, 26, or 28, respectively (FIG. 6A).
# [5] = Hydrolytic stability of dichlorovinylethers; assay type: physicochemical; settings: for stability at pH 11: converted into α-chloroacetates
# Text: The non-selective dichlorovinylester 1 (see FIG. 1), which readily reacts with all possible nucleophiles, such as, for example, cysteine, serine and finally also threonine, served as a further lead-structure for the syntheses of compounds according to the invention. In addition, the aim was pursued to reduce the inherent over-activation of this compound. The “removal” of the acyl group of 1 could reduce the non-specific hydrolysis through ubiquitary nucleophiles, and results in quite stable dichlorovinylethers (28). […] This dual reactivity which is provided in a cascade-like reaction, corresponds to the specific requirements for an N-terminal threonine-protease-inhibitor.
# [6] = test system: poly-ubiquitinylated proteins in HeLa-cells; assay: Accumulation of poly-ubiquitinylated proteins, Western blot; assay type: cell-based; settings: 1 μM for compound 15
# Procedure: as §6
# A specific inhibition of the proteasome lead to an accumulation of poly-ubiquitinylated proteins. Indeed, the amount of poly-ubiquitinylated proteins increased during the incubation with the inhibitors. First effects were observed after 2 hours, for compound 15 (FIG. 6B) as well as for compounds 20, 22, 25 and 28 (data not shown).
# 50 μg of whole-cell-lysate were separated by SDS-PAGE, and blottet onto a PVDF-membrane (Millipore). The blots were blocked by means of a 5% milk-suspension. The poly-ubiquitinylated proteins were detected by anti-ubiquitin-antibody (DAKO), and anti-rabbit, POD-labelled, as a secondary antibody (DIANOVA), and visualized through ECL.
# [7] = biological target: T6, 20S proteasome β5 chymotrypsin-like activity (GLL-MCA) (Homo sapiens, UniProt P20618+P28074); assay: Protease assay, chymotrypsin-like activity of isolated 20S proteasomes (GLL substrate); assay type: biochemical; settings: isolated 20S proteasome; GLL-MCA 50 μM; 15 min pre-incubation; read-out: IC50 β5 Chym.-like (L)
# T6 construct: Proteasomes were isolated from red blood cells; from tissue; host or cells: red blood cells
# Procedure: as §1, §2, §3, §4
# HeLa-cells = assay: Viability of HeLa-cells, crystal violet-staining; assay type: cell-based; settings: 10 μM, 20 hours
# Procedure: A, The viability of HeLa-Cells that were incubated with the compounds 7-28 and MG132 (1 μM), was determined using crystal-violet-staining after 20 h.
# B, The viability of HeLa-Cells is dependent from the concentration of the inhibitor. HeLa-cells were cultivated for 20 hours in the presence of increasing concentrations (10 to 10000 nM) of the compounds (7, 13, 15, 18, 20-22, 24-28) and MG 132. The survival of the cells was determined using crystal-violet-staining.
# The viability of Hela-Cells in the presence of different compounds was tested in […]. The viability of HeLa-cells was tested through crystal violet-staining following the incubation with the inhibitors. The cells were washed once with PBS, fixed with 1% glutardialdehyde for 30 min, and washed again. Finally, the fixed cells were stained with 0.1% crystal violet in PBS for 30 min, and subsequently carefully washed with water, in order to remove unbound dye. The residual dye was eluted with 0.1% Triton X-100 in PBS, and determined at 550 nm.
SMILES,IC50 [1],IC50 [2],which proteasomal activities are inhibited (site selectivity) (20S proteasome),further results
CC(C)C[C@@H](C=O)NC(=O)[C@H](CC(=O)OCc1ccccc1)NC(=O)[C@H](CC(C)C)NC(=O)OCc1ccccc1 [Compound 18] (Cbz-Leu-Asp(OBn)-Leu-aldehyde),1.73 µM,3.12 µM,inhibited the chymotryptic and the caspase-like sites,reduction of the specific proteasomal activity in cells ([4]; HeLa cells): very weak inhibition
CC(C)C[C@H](NC(=O)OCc1ccccc1)C(=O)N[C@@H](CC(C)C)C(=O)N[C@H](COC(Cl)=CCl)c1ccccc1 [Compound 19],–,–,–,stability in acidic environment [5]: tolerate an acidic environment; stability at pH 11 [5]: hydrolysed readily
CC(C)C[C@@H](COC(Cl)=CCl)NC(=O)[C@H](CC(C)C)NC(=O)[C@H](CC(C)C)NC(=O)OCc1ccccc1 [Compound 20],> 10 µM,> 10 µM,–,first effects on accumulation of poly-ubiquitinylated proteins observed after [6]: 2 h; IC50 [3]: > 10 µM; stability in acidic environment [5]: tolerate an acidic environment; stability at pH 11 [5]: hydrolysed readily
CC(C)C[C@H](NC(=O)OCc1ccccc1)C(=O)N[C@@H](CC(C)C)C(=O)N[C@@H](CC(C)C)C(O)C#Cc1ccccc1 (some centres unmarked) [Compound 21],1.3 µM,–,exclusive reduction of the chymotryptic activity,reduction of the specific proteasomal activity in cells ([4]; HeLa cells): very weak inhibition; IC50 [7]: > 10 µM
CC(C)C[C@H](NC(=O)OCc1ccccc1)C(=O)N[C@@H](CC(C)C)C(=O)N[C@@H](CC(C)C)C(O)C(=O)Nc1ccccc1 (some centres unmarked) [Compound 25],0.981 µM,4.04 µM,inhibited the chymotryptic and the caspase-like sites,membrane-permeation [4]: membrane-permeation; stability during the incubation periods [4]: sufficient stability; first effects on accumulation of poly-ubiquitinylated proteins observed after [6]: 2 h
CC(C)C[C@H](NC(=O)OCc1ccccc1)C(=O)N[C@@H](CC(C)C)C(=O)N[C@@H](CC(C)C)C(=O)C(=O)NCc1cccnc1 [Compound 27],–,7.97 µM,inhibited the chymotryptic and the caspase-like sites,reduction of the specific proteasomal activity in cells ([4]; HeLa cells): markedly reduction; rate of survival of HeLa-cells (HeLa-cells): markedly reduced

# More lines, main results first:
IC50 [1],IC50 [2],SMILES,which proteasomal activities are inhibited (site selectivity) (20S proteasome),further results
> 10 µM,> 10 µM,CC(C)C[C@@H](CO)NC(=O)[C@H](CC(=O)OC(C)(C)C)NC(=O)[C@H](CC(C)C)NC(=O)OCc1ccccc1 [Compound 8] (Cbz-Leu-Asp(OtBu)-[Leu(ol)]),exclusive inhibition of the trypsin-like activity; also recorded: specifically reduced the trypsine-like activity,IC50 [3]: 5.48 µM
> 10 µM,–,CC(=O)N[C@@H](CC(C)C)C(=O)N[C@@H](CC(=O)OC(C)(C)C)C(=O)N[C@H](CO)CC(C)C [Compound 9] (Ac-Leu-Asp(OtBu)-[Leu(ol)]),–,–
> 10 µM,–,CC(=O)N[C@@H](CC(C)C)C(=O)N[C@@H](CC(=O)OCc1ccccc1)C(=O)N[C@H](CO)CC(C)C [Compound 10] (Ac-Leu-Asp(OBn)-[Leu(ol)]),–,–
> 10 µM,–,CC(C)C[C@@H](CO)NC(=O)[C@H](CC(=O)OCc1ccccc1)NC(=O)[C@H](CC(C)C)NC(=O)OCc1ccccc1 [Compound 11] (Cbz-Leu-Asp(OBn)-[Leu(ol)]),–,–
> 10 µM,–,CC(C)C[C@@H](CO)NC(=O)[C@H](CC(=O)OCc1ccccc1)NC(=O)[C@H](CC(C)C)NC(=O)OC(C)(C)C [Compound 12] (Boc-Leu-Asp(OBn)-[Leu(ol)]),–,–
7.26 µM,> 10 µM,CC(C)C[C@@H](C=O)NC(=O)[C@H](CC(=O)O)NC(=O)[C@H](CC(C)C)NC(=O)OCc1ccccc1 [Compound 16] (Cbz-Leu-Asp-Leu-aldehyde),exclusive reduction of the chymotryptic activity,IC50 [3]: > 10 µM
2.2 µM,–,CC(C)CC(NC(=O)C(CC(C)C)NC(=O)C(CC(C)C)NC(=O)OCc1ccccc1)C(=O)CCl (stereo not drawn) [Compound 22] (Cbz-Leu-Leu-Leu-CH2Cl; configuration not given here),exclusive reduction of the chymotryptic activity,"reduction of the proteolytic activity in cells at 10 nM ([4]; HeLa cells, 10 nM): reduction of the proteolytic activity; membrane-permeation [4]: membrane-permeation; stability during the incubation periods [4]: sufficient stability; first effects on accumulation of poly-ubiquitinylated proteins observed after [6]: 2 h"
